Key:
Type in all cases: cell-based
[1] = system: Human Dermal Fibroblasts (HDF); test: BrdU cell proliferation assay; settings: HDF incubated 24 h with 5, 0.5 or 0.05 μg/ml synthetic peptide; percentage of untreated control
Method: BrDu is incorporated into newly synthesised DNA strands of actively proliferating cells. Following partial denaturation of double stranded DNA, Brdu is detected immunochemically allowing the assessment of the population of cells which are synthesizing DNA.
Human Dermal Fibroblasts (HDF—Sigma 10605a) were seeded in a 96 well plate at 10,000 cells per well in DMEM containing 10% fetal calf serum (FCS), 1% Pen/strep, 1% L-glutamine and allowed to adhere for 24 h.
Following the initial 24 h incubation the cells were incubated with 5 μg/ml, 0.5 μg/ml or 0.05 μg/ml synthetic peptide for 24 h respectively.
After 18 h incubation with synthetic peptides 20 μl BrDu reagent was added to each well.
At 24 h incubation the cell were fixed and the amount of […] was measured using the BrdU Cell Proliferation Assay, all steps were carried out according to the manufacturer's instructions.
Results were calculated as a percentage of the untreated control. An increase in optical density reading indicates greatER incorporation of BrDu and increase cell proliferation.

[2] = system: keratinocytes of the basal layer of the epidermis, human skin tissue explants; test: Ki67 immunohistochemistry (mitotic index) in skin explants; settings: for % of Ki67 positive cells in the basal layer of the epidermis: peptides 20 μM (Peptide 8 10 μM), compositions 500 μg/mL, EGF 10 ng/mL; for number of mitotic cells compared to EGF at day 1: day 1, compared to EGF
Method: (§1) Skin explants were prepared from abdominal plastic surgery. Some explants were delipidated with alcohol to obtain a dehydrated skin.
(§2) These explants were maintained in maintenance medium supplied by the provider Bioprédic International for 5 days. Test items are applied twice per day with 5 μL per explant.
(§3) After receipt in the laboratory, each skin explant in the maintenance medium is delipidated with 5 μL alcohol during 3 hours.
(§4) After 3 hours, all skin explants are treated two per day with test items, and they are incubated at 37° C.+/−2° C., 5% CO2 for 1 day or 5 days. Integrity of the system is realized at day 1 and day 5 with a viability control with MTT.
Epithelial proliferation was analyzed by immunohistochemistry using anti-Ki67 antibody.
Counting the number of labeled cells (keratinocytes of the basal layer of the epidermis) is performed and provides the total number of basal cells to calculate the % of labeled cells.
The results of the immunohistochemical analysis of Ki67 are reported in Table 4 and expressed as % of labelled at the basal layer of the epidermis. […] Immunohistochemical analysis of mitotic activity is shown in annex 4 with a reminder of the average for each analysed conditions.

[3] = system: elastic fibers of the dermis, human skin tissue explants; test: Morphometric quantification of elastic fibers (elastin expression) in skin explants; settings: for Morphometric quantification of elastic fibers in the middle dermis (%) / Morphometric quantification of elastic fibers in the superficial dermis (%): test items applied twice per day, 5 μL per explant, peptides 20 μM (Peptide 8 10 μM), compositions 500 μg/mL, EGF 10 ng/mL
Method: as §1, §2
For each time of analysis (D1 and D5), histologies on delipidated explants, treated explants with test items, the DMSO 0.3% control and water control, are performed.
as §3, §4
Histology is realized by the laboratory Gredeco and the immunostaining to elastin and Ki67 are realized by the same laboratory. Immunostaining to filaggrin is realized by the laboratory Intertek.
The immunohistochemical staining intensity in the elastic fibers is evaluated using a semi-quantitative histological score.
The percentage area taken up by elastic fibers in the dermis was calculated in the dermis and the average superficial dermis.

With 470 (PHMP) [compound 470] as the substance, how does the “INCREASE IN PROLIFERATION” value [1] read?
Its value is 119%.

With 471 (PHMPS) [compound 471] as the substance, how does the “INCREASE IN PROLIFERATION” value [1] read?
The value was 38%.

How did the “INCREASE IN PROLIFERATION” value [1] turn out when 472 (PRRF) [compound 472] was run?
The value was 77%.

473 (WMKA) [compound 473] was tested. Which “INCREASE IN PROLIFERATION” value [1] did it give?
Its value is 41%.

With 474 (DSINALEPDHR) [compound 474] as the substance, how does the “INCREASE IN PROLIFERATION” value [1] read?
Its value is 121%.

How did the “INCREASE IN PROLIFERATION” value [1] turn out when 477 (IFEDAITIPGR) [compound 477] was run?
Its value is 81%.

Which “INCREASE IN PROLIFERATION” value [1] does the source give for 478 (LDALEPDNRIESE) [compound 478] here?
The value was 76%.

479 (KTLDYWPSLR) [compound 479] was tested. Which “INCREASE IN PROLIFERATION” value [1] did it give?
Its value is 106%.

For 480 (RHGEWGPSY) [compound 480], which “INCREASE IN PROLIFERATION” value [1] is on record?
The value was 102%.

With 482 (ILVDGSHDIER) [compound 482] as the substance, how does the “INCREASE IN PROLIFERATION” value [1] read?
Its value is 113%.

How did the “INCREASE IN PROLIFERATION” value [1] turn out when 495 (HPMS) [compound 495] was run?
Its value is 68%.

497 (MPMP) [compound 497] was tested. Which “INCREASE IN PROLIFERATION” value [1] did it give?
The value was 58%.

With 499 (PNSM) [compound 499] as the substance, how does the “INCREASE IN PROLIFERATION” value [1] read?
The value was 113%.

For 500 (WDPA) [compound 500], which “INCREASE IN PROLIFERATION” value [1] is on record?
The value was 6%.

For 501 (LRGFSK) [compound 501], which “INCREASE IN PROLIFERATION” value [1] is on record?
Its value is 43%.

For 502 (RSQNIF) [compound 502], which “INCREASE IN PROLIFERATION” value [1] is on record?
Its value is 68%.

503 (YLRGFS) [compound 503] was tested. Which “INCREASE IN PROLIFERATION” value [1] did it give?
Its value is 125%.

504 (GALMLPHYN) [compound 504] was tested. Which “INCREASE IN PROLIFERATION” value [1] did it give?
Its value is 119%.

Which “INCREASE IN PROLIFERATION” value [1] does the source give for 505 (GALMLPHYNSR) [compound 505] here?
The value was 118%.

What does the source list for HGPVEMPYTLLYPSSK [0723.01]?
% of Ki67 positive cells in the basal layer of the epidermis ([2]; D 1): 18.57%; % of Ki67 positive cells in the basal layer of the epidermis ([2]; D 5): 3.92%; Morphometric quantification of elastic fibers in the middle dermis (%) ([3]; D 1): 7.59%; Morphometric quantification of elastic fibers in the superficial dermis (%) ([3]; D 1): 4.45%; elastic fibers in the middle dermis compared to the water control at D5 [3]: an increase; Morphometric quantification of elastic fibers in the middle dermis (%) ([3]; D 5): 10.17%; Morphometric quantification of elastic fibers in the superficial dermis (%) ([3]; D 5): 10.21%; elastic fibers in the superficial dermis compared to control water [3]: increase by twice

With LDALEPDNR [0723.03] as the substance, how does the “% of Ki67 positive cells in the basal layer of the epidermis” value (“% of Ki67 positive cells” for short) ([2]; D 1) read?
Its value is 22.01%.

And the “% of Ki67 positive cells” value ([2]; D 5)?
Its value is 10.04%.

What about the “Morphometric quantification of elastic fibers in the middle dermis (%)” value ([3]; D 1) of the same substance?
The value was 4.9%.

What about the “Morphometric quantification of elastic fibers in the superficial dermis (%)” value ([3]; D 1) of the same substance?
Its value is 3%.

And the “elastic fibers in the middle dermis compared to the water control at D5” value [3]?
Its value is “an increase”.

And the “Morphometric quantification of elastic fibers in the middle dermis (%)” value ([3]; D 5)?
Its value is 9%.

What about the “Morphometric quantification of elastic fibers in the superficial dermis (%)” value ([3]; D 5) of the same substance?
Its value is 11.68%.

What about the “elastic fibers in the superficial dermis compared to control water” value [3] of the same substance?
The value was “increase by twice”.

What does the source list for QQYGIAASPFLQSAA [0723.07]?
% of Ki67 positive cells in the basal layer of the epidermis ([2]; D 1): 22.22%; % of Ki67 positive cells in the basal layer of the epidermis ([2]; D 5): 5.26%; Morphometric quantification of elastic fibers in the middle dermis (%) ([3]; D 1): 6.46%; Morphometric quantification of elastic fibers in the superficial dermis (%) ([3]; D 1): 4%; Morphometric quantification of elastic fibers in the middle dermis (%) ([3]; D 5): 5.33%; Morphometric quantification of elastic fibers in the superficial dermis (%) ([3]; D 5): 5.15%

How did the “% of Ki67 positive cells” value ([2]; D 1) turn out when RLQSQNDQRGEIIHVK [0723.02] was run?
The value was 19.61%.

And the “% of Ki67 positive cells” value ([2]; D 5)?
Its value is 6.73%.

And the “Morphometric quantification of elastic fibers in the superficial dermis (%)” value ([3]; D 1)?
Its value is 6.09%.

What about the “elastic fibers in the middle dermis compared to the water control at D5” value [3] of the same substance?
The value was “an increase”.

What about the “Morphometric quantification of elastic fibers in the middle dermis (%)” value ([3]; D 5) of the same substance?
The value was 9.08%.

What about the “Morphometric quantification of elastic fibers in the superficial dermis (%)” value ([3]; D 5) of the same substance?
The value was 7.59%.

What about the “elastic fibers in the middle dermis at day 1 compared to control water” value ([3]; day 1, compared to control water) of the same substance?
The value was “increase doubled”.

Which results are given for RPYYSNAPQEIF [0723.04]?
% of Ki67 positive cells in the basal layer of the epidermis ([2]; D 1): 14.97%; % of Ki67 positive cells in the basal layer of the epidermis ([2]; D 5): 11.36%; Morphometric quantification of elastic fibers in the middle dermis (%) ([3]; D 1): 5.22%; Morphometric quantification of elastic fibers in the superficial dermis (%) ([3]; D 1): 3.28%; Morphometric quantification of elastic fibers in the middle dermis (%) ([3]; D 5): 9%; Morphometric quantification of elastic fibers in the superficial dermis (%) ([3]; D 5): 8.94%

Which results are given for SKPHTIFLPQHTDADYILVVLSGK [0723.08]?
% of Ki67 positive cells in the basal layer of the epidermis ([2]; D 1): 27.83%; % of Ki67 positive cells in the basal layer of the epidermis ([2]; D 5): 5.72%; number of mitotic cells compared to EGF at day 1 [2]: an increase; Morphometric quantification of elastic fibers in the middle dermis (%) ([3]; D 1): 3.52%; Morphometric quantification of elastic fibers in the superficial dermis (%) ([3]; D 1): 2.7%; Morphometric quantification of elastic fibers in the middle dermis (%) ([3]; D 5): 7.27%; Morphometric quantification of elastic fibers in the superficial dermis (%) ([3]; D 5): 5.32%

Which “% of Ki67 positive cells” value ([2]; D 1) does the source give for TVFDGVLRPGQL [0723.06] here?
Its value is 31.97%.

What about the “% of Ki67 positive cells” value ([2]; D 5) of the same substance?
Its value is 5.04%.

What about the “number of mitotic cells compared to EGF at day 1” value [2] of the same substance?
The value was “an increase”.

And the “Morphometric quantification of elastic fibers in the middle dermis (%)” value ([3]; D 1)?
Its value is 4.54%.

What about the “Morphometric quantification of elastic fibers in the superficial dermis (%)” value ([3]; D 1) of the same substance?
The value was 3.8%.

What about the “Morphometric quantification of elastic fibers in the middle dermis (%)” value ([3]; D 5) of the same substance?
Its value is 8.67%.

And the “Morphometric quantification of elastic fibers in the superficial dermis (%)” value ([3]; D 5)?
Its value is 4.03%.

With VLLEQQEQEPQH [0723.05] as the substance, how does the “% of Ki67 positive cells” value ([2]; D 1) read?
Its value is 9.48%.

What about the “% of Ki67 positive cells” value ([2]; D 5) of the same substance?
Its value is 3.08%.

And the “Morphometric quantification of elastic fibers in the middle dermis (%)” value ([3]; D 1)?
The value was 8.8%.

And the “Morphometric quantification of elastic fibers in the superficial dermis (%)” value ([3]; D 1)?
The value was 6.34%.

And the “Morphometric quantification of elastic fibers in the middle dermis (%)” value ([3]; D 5)?
Its value is 6.61%.

What about the “Morphometric quantification of elastic fibers in the superficial dermis (%)” value ([3]; D 5) of the same substance?
The value was 6.26%.

Reference: patent publication US11707500B2, “Growth promoting peptides, and uses thereof” (NURITAS LIMITED, priority 2015, dated 2023)
